Source: ChEMBL document CHEMBL1141937, “Inhibition of Tpl2 kinase and TNF-alpha production with 1,7-naphthyridine-3-carbonitriles: synthesis and structure-activity relationships” (Bioorg Med Chem Lett, 2005)
≈ marks a conversion by molar mass, not a printed value.

Assays:
[1] = biological target: T1, Mitogen-activated protein kinase kinase kinase 8 (Homo sapiens, UniProt P41279); experiment: Inhibitory activity against human Tpl2 kinase via quantification of MEK phosphorylation; format: functional
Target sequence in this assay (P41279 whole entry): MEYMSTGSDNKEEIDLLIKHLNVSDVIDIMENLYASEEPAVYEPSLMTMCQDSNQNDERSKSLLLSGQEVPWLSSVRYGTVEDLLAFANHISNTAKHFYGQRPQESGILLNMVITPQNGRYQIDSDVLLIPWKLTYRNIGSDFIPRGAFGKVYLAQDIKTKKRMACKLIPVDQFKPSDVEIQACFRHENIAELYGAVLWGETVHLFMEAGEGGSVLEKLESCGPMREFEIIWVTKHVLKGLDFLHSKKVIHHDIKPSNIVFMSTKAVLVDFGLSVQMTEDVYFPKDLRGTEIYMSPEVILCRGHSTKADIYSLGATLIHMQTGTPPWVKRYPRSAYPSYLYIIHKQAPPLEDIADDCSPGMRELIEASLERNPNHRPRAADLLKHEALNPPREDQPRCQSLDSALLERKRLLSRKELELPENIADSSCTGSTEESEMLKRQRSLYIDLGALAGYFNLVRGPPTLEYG

[2] = biological target: MAP kinase-activated protein kinase 2 (Homo sapiens, UniProt P49137); experiment: Inhibitory activity against MK2
[3] = biological target: Dual specificity mitogen-activated protein kinase kinase 1 (Homo sapiens, UniProt Q02750); experiment: Inhibitory activity against MEK
Protein kinase C (PKC) = experiment: Inhibitory activity against PKC; format: protein assay
[4] = Solubility determined; format: physicochemical
[5] = biological target: Proto-oncogene tyrosine-protein kinase Src (Homo sapiens, UniProt P12931); experiment: Inhibitory activity against Src
[6] = Plasma binding to human serum albumin; format: ADME; details: read-out: PPB (converted)
[7] = biological target: T1, Mitogen-activated protein kinase kinase kinase 8; experiment: Inhibition of LPS-induced TNFalpha production in primary human monocytes
Target sequence in this assay (P41279 whole entry, looked up): as the sequence (P41279 whole entry) above

MAP kinase p38 = MAP kinase p38 (Homo sapiens, UniProt O15264+Q15759+Q16539+P53778); experiment: Inhibitory activity against p38; format: protein assay
[8] = biological target: T1, Mitogen-activated protein kinase kinase kinase 8; experiment: Inhibition of LPS-induced TNFalpha production in human whole blood
Target sequence in this assay (P41279 whole entry, looked up): as the sequence (P41279 whole entry) above

Sequence of MAP kinase-activated protein kinase 2 (P49137 whole entry): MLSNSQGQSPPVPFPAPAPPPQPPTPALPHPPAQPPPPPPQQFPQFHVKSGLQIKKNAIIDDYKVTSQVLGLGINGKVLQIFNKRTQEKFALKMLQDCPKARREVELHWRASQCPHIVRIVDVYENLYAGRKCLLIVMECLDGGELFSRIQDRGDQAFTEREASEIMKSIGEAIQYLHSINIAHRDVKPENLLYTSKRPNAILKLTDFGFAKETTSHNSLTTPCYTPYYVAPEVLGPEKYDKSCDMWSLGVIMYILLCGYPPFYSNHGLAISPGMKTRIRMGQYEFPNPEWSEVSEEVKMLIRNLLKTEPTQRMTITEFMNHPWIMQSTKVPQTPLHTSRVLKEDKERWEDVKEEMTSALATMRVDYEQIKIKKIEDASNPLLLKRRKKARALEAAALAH
Sequence of Proto-oncogene tyrosine-protein kinase Src (P12931 2-536 limits assumed): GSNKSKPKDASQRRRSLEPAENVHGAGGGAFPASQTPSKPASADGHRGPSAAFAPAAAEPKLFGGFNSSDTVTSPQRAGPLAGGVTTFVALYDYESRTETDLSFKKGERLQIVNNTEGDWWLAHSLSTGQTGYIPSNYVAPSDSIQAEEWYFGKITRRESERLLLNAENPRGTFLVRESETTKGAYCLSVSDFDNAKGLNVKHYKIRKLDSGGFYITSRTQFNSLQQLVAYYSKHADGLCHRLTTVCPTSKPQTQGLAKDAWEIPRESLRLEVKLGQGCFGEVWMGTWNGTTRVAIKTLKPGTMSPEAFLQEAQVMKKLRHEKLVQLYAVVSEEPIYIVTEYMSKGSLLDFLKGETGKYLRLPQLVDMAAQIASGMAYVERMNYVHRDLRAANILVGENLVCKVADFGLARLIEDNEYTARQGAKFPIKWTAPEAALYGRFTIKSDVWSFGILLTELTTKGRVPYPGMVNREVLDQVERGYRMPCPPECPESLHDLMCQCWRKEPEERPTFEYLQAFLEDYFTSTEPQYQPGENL
Sequence of Dual specificity mitogen-activated protein kinase kinase 1 (Q02750 whole entry): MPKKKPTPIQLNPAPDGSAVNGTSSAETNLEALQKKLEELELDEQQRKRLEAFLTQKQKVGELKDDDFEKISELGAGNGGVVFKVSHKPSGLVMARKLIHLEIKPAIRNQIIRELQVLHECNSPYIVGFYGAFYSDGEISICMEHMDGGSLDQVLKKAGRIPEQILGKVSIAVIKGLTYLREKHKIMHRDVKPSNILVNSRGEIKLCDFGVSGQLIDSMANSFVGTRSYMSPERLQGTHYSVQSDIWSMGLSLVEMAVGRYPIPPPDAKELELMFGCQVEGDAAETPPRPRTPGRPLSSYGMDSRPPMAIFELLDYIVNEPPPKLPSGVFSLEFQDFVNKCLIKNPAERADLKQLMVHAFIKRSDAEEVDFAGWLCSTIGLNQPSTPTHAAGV

SMILES: CC[C@H](Nc1cc2c(Nc3ccc(F)c(Cl)c3)c(C#N)cnc2cn1)c1ccccc1
- IC50 [1]: > 40 µM

SMILES: N#Cc1cnc2cnc(NC(CN3CCOCC3)c3ccccc3)cc2c1Nc1ccc(F)c(Cl)c1 (stereo unspecified)
- IC50 [1]: 1.8 µM

SMILES: N#Cc1cnc2cnc(NCCN3CCOCC3)cc2c1Nc1ccc(Cl)cc1
- IC50 [1]: > 40 µM

SMILES: N#Cc1cnc2cnc(NCCN3CCOCC3)cc2c1Nc1ccc(Cl)cc1F
- IC50 [1]: 10 µM

SMILES: N#Cc1cnc2cnc(NCCN3CCOCC3)cc2c1Nc1ccc(Cl)c(Cl)c1
- IC50 [1]: 10 µM

SMILES: N#Cc1cnc2cnc(NCCN3CCOCC3)cc2c1Nc1ccc(F)c(Cl)c1
- IC50 [2]: > 400 µM
- IC50 [3]: 15 µM
- IC50 (Protein kinase C (PKC)): 30 µM
- solubility ([4]; read-out: Solubility): 64 µg/mL (≈ 150 µM)
- IC50 [5]: 40 µM
- fraction unbound [6]: 0.15

SMILES: N#Cc1cnc2cnc(NCCN3CCOCC3)cc2c1Nc1ccc(C(F)(F)F)cc1
- IC50 [1]: > 40 µM

SMILES: N#Cc1cnc2cnc(NCCCN3CCOCC3)cc2c1Nc1ccc(F)c(Cl)c1
- IC50 [1]: 3.4 µM

SMILES: CN(Cc1ccccc1)c1cc2c(Nc3ccc(F)c(Cl)c3)c(C#N)cnc2cn1
- IC50 [1]: > 40 µM

SMILES: N#Cc1cnc2cnc(NCCN3CCOCC3)cc2c1Nc1ccc(S(=O)(=O)c2ccccc2)cc1
- IC50 [1]: > 40 µM

SMILES: Cc1c(Br)cccc1Nc1c(C#N)cnc2cnc(NCCN3CCOCC3)cc12
- IC50 [1]: > 40 µM

SMILES: N#Cc1cnc2cnc(NC3CCCC3)cc2c1Nc1ccc(F)c(Cl)c1
- IC50 [1]: > 40 µM

SMILES: N#Cc1cnc2cnc(NCCN3CCOCC3)cc2c1Nc1ccc(Sc2ccccc2)cc1
- IC50 [2]: > 400 µM
- IC50 [3]: 0.96 µM
- IC50 (Protein kinase C (PKC)): > 400 µM
- solubility ([4]; read-out: Solubility): 1 µg/mL (≈ 2.07 µM)
- IC50 [5]: 3 µM
- fraction unbound [6]: < 0.01

SMILES: N#Cc1cnc2cnc(NCc3ccccc3)cc2c1Nc1ccc(F)c(Cl)c1
- IC50 [1]: 0.073 µM

SMILES: N#Cc1cnc2cnc(NCc3cccnc3)cc2c1Nc1ccc(F)c(Cl)c1
- IC50 [2]: 110 µM
- IC50 [3]: > 40 µM
- IC50 (Protein kinase C (PKC)): > 400 µM
- solubility ([4]; read-out: Solubility): 2 µg/mL (≈ 4.94 µM)
- IC50 [5]: > 400 µM
- fraction unbound [6]: 0.02

SMILES: C[C@H](Nc1cc2c(Nc3ccc(F)c(Cl)c3)c(C#N)cnc2cn1)c1ccccc1
- IC50 [1]: 27 µM

SMILES: CN1CCN(CCCNc2cc3c(Nc4ccc(F)c(Cl)c4)c(C#N)cnc3cn2)CC1
- IC50 [1]: 21 µM

SMILES: N#Cc1cnc2cnc(NCCN3CCOCC3)cc2c1Nc1ccc(Oc2ccccc2)cc1
- IC50 [2]: > 400 µM
- IC50 [3]: 0.8 µM
- IC50 [1]: 0.38 µM
- IC50 (Protein kinase C (PKC)): 200 µM
- solubility ([4]; read-out: Solubility): 1 µg/mL (≈ 2.14 µM)
- IC50 [5]: 90 µM
- fraction unbound [6]: < 0.01

SMILES: N#Cc1cnc2cnc(NCCN3CCOCC3)cc2c1NCc1ccc(F)c(Cl)c1
- IC50 [1]: > 40 µM

SMILES: N#Cc1cnc2cnc(NCCN3CCOCC3)cc2c1Nc1ccc(Cc2ccccc2)cc1
- IC50 [7]: 0.8 µM
- IC50 [2]: > 400 µM
- IC50 [3]: 0.63 µM
- IC50 [1]: 0.002 µM
- IC50 (Protein kinase C (PKC)): > 400 µM
- solubility [4]: Insoluble
- IC50 (MAP kinase p38): > 400 µM
- IC50 [8]: 13.6 µM
- IC50 [5]: 4 µM
- fraction unbound [6]: 0.01

SMILES: N#Cc1cnc2cnc(NCCCN3CCCC3)cc2c1Nc1ccc(F)c(Cl)c1
- IC50 [1]: 3.57 µM
